Earlier results on 1 molecule are cited in patent US8496977B2, “Natural extract from whole banana fruit (Musa Spp)” (priority 2009, dated 2013).

SMILES strings stand for the structures.

For one series, the system named is eicosanoid synthesis. As to conditions: by modulating eicosanoid synthesis.

As to `NCCc1ccc(O)c(O)c1` [dopamine], in the series on eicosanoid synthesis, the “protection against intestinal mucosal injury” value is listed as “protect against intestinal mucosal injury”. The radical-scavenging rate entry (compared with catechin and gallocatechin gallate) is “faster radical-scavenging rate than catechin”. Moreover, for the setting “compared with other antioxidants”, the antioxidative potency result was “greater than that of BHA, BHT, flavonoids, glutathione, and catechin”.
